Test results taken from patent publication US11767323B2, “Tricyclic pyridone compounds as JAK2 V617F inhibitors” (Incyte Corporation, priority 2020, dated 2023).

Experiments:
[1] = target: catalytic domain (JH1, amino acids 826-1132) of human JAK2 (Homo sapiens (Human), UniProt O60674); experiment: JAK2 LanthaScreen JH1 Binding Assay; conditions: JAK2 JH1 1.5 nM, 50 nM tracer, 2 hours at 25° C.; read-out: JH1 BIND IC50
Protocol: Example A. JAK2 LanthaScreen JH1 Binding Assay
JAK2 JH1 binding assay utilizes catalytic domain (JH1, amino acids 826-1132) of human JAK2 expressed as N-terminal FLAG-tagged, biotinylated protein in a baculovirus expression system (Carna Biosciences, Product #08-445-20N). The assay was conducted in black 384-well polystyrene plates in a final reaction volume of 20 μL. JAK2 JH1 (1.5 nM) was incubated with compounds (100 nL serially diluted in DMSO) in the presence of 50 nM Fluorescent JAK2-JH1 Tracer and 0.5 nM Streptavidin-Tb cryptate (Cisbio Part #610SATLB) in assay buffer (50 mM Tris, pH=7.5, 10 mM MgCl2, 0.01% Brij-35, 0.1% BSA, 1 mM EGTA, 5% Glycerol and 5 mM DTT). Non-specific binding was accessed in the presence of 2 mM ATP. After incubation for 2 hours at 25° C., LanthaScreen signals were read on a PHERAstar FS plate reader (BMG LABTECH). Data was analyzed with IDBS XLfit and GraphPad Prism 5.0 software using a four parameter dose response curve to determine IC50 for each compound.

[2] = target: pseudo-kinase domain (JH2, amino-acids 536-812) of human V617F mutant JAK2 (Homo sapiens (Human), UniProt O60674, F794H/V617F/W659A/W777A); experiment: JAK2 LanthaScreen JH2-V617F Binding Assay; conditions: JAK2 JH2-V617F 0.26 nM, 50 nM tracer, 1 hour at 25° C.; read-out: JH2 BIND V617F IC50
pseudo-kinase domain (JH2, amino-acids 536-812) of human V617F mutant JAK2, sequence (O60674 536-812 V617F/W659A/W777A/F794H): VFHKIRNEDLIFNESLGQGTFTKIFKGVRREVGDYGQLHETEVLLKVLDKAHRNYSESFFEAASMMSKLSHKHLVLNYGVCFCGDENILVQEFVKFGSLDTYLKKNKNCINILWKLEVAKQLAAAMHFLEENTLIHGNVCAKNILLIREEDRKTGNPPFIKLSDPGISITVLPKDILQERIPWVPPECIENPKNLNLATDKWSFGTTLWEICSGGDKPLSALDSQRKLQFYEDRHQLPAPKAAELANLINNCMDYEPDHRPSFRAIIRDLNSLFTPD
Protocol: Example C. JAK2 LanthaScreen JH2-V617F Binding Assay
(§1) JAK2 JH2-V617F binding assay utilizes pseudo-kinase domain (JH2, amino-acids 536-812 with 3 surface mutations W659A, W777A, F794H) of human V617F mutant JAK2 expressed as C-terminal His-Avi-tagged, biotinylated protein in a baculovirus expression system (BPS Bioscience, Catalog #79498). The assay was conducted in black 384-well polystyrene plates in a final reaction volume of 20 μL. JAK2 JH2-V617F (0.26 nM) was incubated with compounds (100 nL serially diluted in DMSO) in the presence of 50 nM Fluorescent JAK2-JH2 Tracer (MedChem Express Catalog #HY-102055) and 0.25 nM Streptavidin-Tb cryptate (Cisbio Part #610SATLB) in assay buffer (50 mM Tris, pH=7.5, 10 mM MgCl2, 0.01% Brij-35, 0.1% BSA, 1 mM EGTA, 5% Glycerol and 5 mM DTT). Non-specific binding was accessed in the presence of 2 mM ATP. After incubation for 1 hour at 25° C., LanthaScreen signals were read on a PHERAstar FS plate reader (BMG LABTECH). Data was analyzed with IDBS XLfit and GraphPad Prism 5.0 software using a four parameter dose response curve to determine IC50 for each compound.

[3] = target: catalytic domain (JH1, amino acids 808-1132) of human JAK2 (Homo sapiens (Human), UniProt O60674); experiment: JAK2 HTRF Enzyme Activity Assay; format: biochemical; conditions: JAK2 0.015 nM, ATP (30 μM or 1 mM), 60 minutes at 25° C.
catalytic domain (JH1, amino acids 808-1132) of human JAK2, sequence (O60674 808-1132): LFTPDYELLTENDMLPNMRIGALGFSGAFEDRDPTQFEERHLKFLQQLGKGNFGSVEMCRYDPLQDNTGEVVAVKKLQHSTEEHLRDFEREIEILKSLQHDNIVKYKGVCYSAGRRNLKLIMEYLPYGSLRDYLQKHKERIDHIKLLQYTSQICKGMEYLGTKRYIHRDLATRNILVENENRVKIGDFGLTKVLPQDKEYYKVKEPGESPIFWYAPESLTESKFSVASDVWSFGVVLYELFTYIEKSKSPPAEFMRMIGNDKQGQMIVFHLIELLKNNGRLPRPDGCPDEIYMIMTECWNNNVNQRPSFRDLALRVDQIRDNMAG
Protocol: Example D. JAK2 HTRF Enzyme Activity Assay
JAK2 enzyme activity assays utilize catalytic domain (JH1, amino acids 808-1132) of human JAK2 expressed as N-terminal His-tagged protein in a baculovirus expression system (BPS Bioscience, Catalog #40450). The assays was conducted in black 384-well polystyrene plates in a final reaction volume of 20 μL. JAK2 (0.015 nM) was incubated with compounds (100 nL serially diluted in DMSO) in the presence of ATP (30 μM or 1 mM) and 500 nM Biotin-labeled EQEDEPEGDYFEWLE (SEQ ID NO.: 1) peptide (BioSource International, custom synthesis) in assay buffer (50 mM Tris, pH=7.5, 10 mM MgCl2, 0.01% Brij-35, 0.1% BSA, 1 mM EGTA, 5% Glycerol and 5 mM DTT) for 60 minutes at 25° C. The reactions were stopped by the addition of 10 μL of detection buffer (50 mM Tris, pH 7.8, 0.5 mg/mL BSA, 150 mM NaCl), supplemented with EDTA, LANCE Eu-W1024 anti-phosphotyrosine (PY20), (PerkinElmer, Catalog #AD0067) and Streptavidin SureLight APC (PerkinElmer Catalog #CR130-100), for a final concentration of 15 mM, 1.5 nM and 75 nM, respectively. HTRF signals were read after 30 minutes incubation at room temperature on a PHERAstar FS plate reader (BMG LAB TECH). Data was analyzed with IDBS XLfit and GraphPad Prism 5.0 software using a four parameter dose response curve to determine IC50 for each compound.

[4] = target: pseudo-kinase domain (JH2, amino-acids 536-812) of human Wild Type JAK2 (Homo sapiens (Human), UniProt O60674, F794H/W659A/W777A); experiment: JAK2 LanthaScreen JH2-WT Binding Assay; conditions: JAK2 JH2-WT 0.145 nM, 50 nM tracer, 1 hour at 25° C.; read-out: JH2 BIND WT IC50
pseudo-kinase domain (JH2, amino-acids 536-812) of human Wild Type JAK2, sequence (O60674 536-812 W659A/W777A/F794H): as the sequence (O60674 536-812 V617F/W659A/W777A/F794H) above, with F82V counted along it
Protocol: Example B. JAK2 LanthaScreen JH2-WT Binding Assay
as §1, with “JH2-WT” for “JH2-V617F”, “Wild Type” for “V617F mutant”, “#79463).” for “#79498).”, “JH2-WT (0.145” for “JH2-V617F (0.26”, “LAB TECH).” for “LABTECH).”

catalytic domain (JH1, amino acids 826-1132) of human JAK2, sequence (O60674 826-1132): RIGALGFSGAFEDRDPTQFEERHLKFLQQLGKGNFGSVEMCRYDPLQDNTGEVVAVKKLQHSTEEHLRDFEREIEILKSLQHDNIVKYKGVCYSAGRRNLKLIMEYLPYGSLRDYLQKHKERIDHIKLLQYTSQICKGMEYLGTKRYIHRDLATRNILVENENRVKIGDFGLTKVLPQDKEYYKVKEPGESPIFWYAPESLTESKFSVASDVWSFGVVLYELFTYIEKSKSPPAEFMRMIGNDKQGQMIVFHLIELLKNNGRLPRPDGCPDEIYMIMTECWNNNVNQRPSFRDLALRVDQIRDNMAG

`Cc1ccncc1-c1cc2c3c(-c4ccc(C(=O)N(C)C)cc4)c(-c4cnn(C)c4)[nH]c3ncc2n(C)c1=O` [Example 36, N,N-dimethyl-4-(6-methyl-2-(1-methyl-1H-pyrazol-4-yl)-8-(4-methylpyridin-3-yl)-7-oxo-6,7-dihydro-3H-pyrrolo[3,2-f][1,7]naphthyridin-1-yl)benzamide] was tested, and the IC50 [1] was no more than 100 nM, the IC50 [2] was no more than 100 nM and the IC50 [3] was no more than 100 nM. It also gave an IC50 [4] of no more than 100 nM.

`Cc1cc(-c2c(-c3ccc(-c4cnn(C)c4CO)cc3)c3c4cc(-c5cnn(C)c5)[nH]c4ncc3n(C)c2=O)on1` [Example 32, 9-(4-(5-(Hydroxymethyl)-1-methyl-1H-pyrazol-4-yl)phenyl)-6-methyl-2-(1-methyl-1H-pyrazol-4-yl)-8-(3-methylisoxazol-5-yl)-3,6-dihydro-7H-pyrrolo[3,2-f][1,7]naphthyridin-7-one] gave an IC50 [1] of 100 to 500 nM, an IC50 [2] of no more than 100 nM and an IC50 [3] of 100 to 500 nM. For the same compound, the IC50 [4] was no more than 100 nM.

`CN(C)C(=O)c1cc2c3c(-c4ccc(C5(C#N)CC5)cc4)c(-c4cnn(C)c4)[nH]c3ncc2n(C)c1=O` [Example 44, 1-(4-(1-cyanocyclopropyl)phenyl)-N,N,6-trimethyl-2-(1-methyl-1H-pyrazol-4-yl)-7-oxo-6,7-dihydro-3H-pyrrolo[3,2-f][1,7]naphthyridine-8-carboxamide] was tested, and the IC50 [1] was 1000 to 10000 nM, the IC50 [2] was no more than 100 nM and the IC50 [3] was 1000 to 10000 nM. The IC50 [4] was no more than 100 nM.

Compound `COCc1ccc(-c2c(-c3cc(C)no3)c(=O)n(C)c3cnc4[nH]c(-c5cnn(C)c5)cc4c23)cc1` [Example 27, 9-(4-(Methoxymethyl)phenyl)-6-methyl-2-(1-methyl-1H-pyrazol-4-yl)-8-(3-methylisoxazol-5-yl)-3,6-dihydro-7H-pyrrolo[3,2-f][1,7]naphthyridin-7-one] has an IC50 [1] of 100 to 500 nM, an IC50 [2] of no more than 100 nM and an IC50 [3] of 100 to 500 nM. For the same compound, the IC50 [4] was no more than 100 nM.

`COc1c(-c2ccccc2)c(=O)n(C)c2cnc3[nH]c(-c4ccc(CN5CCC(S(C)(=O)=O)CC5)cc4)cc3c12` [Example 20, 9-Methoxy-6-methyl-2-(4-((4-(methylsulfonyl)piperidin-1-yl)methyl)phenyl)-8-phenyl-3,6-dihydro-7H-pyrrolo[3,2-f][1,7]naphthyridin-7-one] showed an IC50 [1] of no more than 100 nM, an IC50 [2] of 100 to 500 nM and an IC50 [3] of no more than 100 nM. For the same compound, the IC50 [4] was no more than 100 nM.

In the case of `Cc1cc(-c2c(-c3ccccc3)c3c4cc(-c5cnn(C)c5)[nH]c4ncc3n(C)c2=O)on1` [Example 23, 6-methyl-2-(1-methyl-1H-pyrazol-4-yl)-8-(3-methylisoxazol-5-yl)-9-phenyl-3,6-dihydro-7H-pyrrolo[3,2-f][1,7]naphthyridin-7-one], the IC50 [1] is reported as 100 to 500 nM, the IC50 [2] is reported as no more than 100 nM and the IC50 [3] is reported as 100 to 500 nM. The IC50 [4] was no more than 100 nM.

Compound `COC1CCC(c2c(-c3cc(C)no3)c(=O)n(C)c3cnc4[nH]c(-c5cnn(C)c5)cc4c23)CC1` (stereo not drawn) [Example 22, 9-(4-Methoxycyclohexyl)-6-methyl-2-(1-methyl-1H-pyrazol-4-yl)-8-(3-methylisoxazol-5-yl)-3,6-dihydro-7H-pyrrolo[3,2-f][1,7]naphthyridin-7-one] has an IC50 [1] of 100 to 500 nM, an IC50 [2] of no more than 100 nM and an IC50 [3] of 100 to 500 nM. It also gave an IC50 [4] of no more than 100 nM.

`CS(=O)(=O)C1CCN(Cc2ccc(-c3cc4c(ncc5[nH]c(=O)c(-c6ccccc6)cc54)[nH]3)cc2)CC1` [Example 1, 2-(4-((4-(Methylsulfonyl)piperidin-1-yl)methyl)phenyl)-8-phenyl-3,6-dihydro-7H-pyrrolo[3,2-f][1,7]naphthyridin-7-one] was tested, and the IC50 [1] was 1000 to 10000 nM, the IC50 [2] was 1000 to 10000 nM and the IC50 [3] was greater than 10000 nM. The IC50 [4] was 1000 to 10000 nM.

`CN(C)C(=O)c1ccc(-c2c(-c3cnn(C)c3)[nH]c3ncc4c(cc(Nc5ccc(Cc6nnn[nH]6)cc5)c(=O)n4C)c23)cc1` [Example 35, 4-(8-((4-((1H-tetrazol-5-yl)methyl)phenyl)amino)-6-methyl-2-(1-methyl-1H-pyrazol-4-yl)-7-oxo-6,7-dihydro-3H-pyrrolo[3,2-f][1,7]naphthyridin-1-yl)-N,N-dimethylbenzamide] showed an IC50 [1] of no more than 100 nM, an IC50 [2] of no more than 100 nM and an IC50 [3] of no more than 100 nM. The IC50 [4] was no more than 100 nM.

Work on `COCCS(=O)(=O)C1CCN(c2cc3c4c(-c5ccc(C(=O)N(C)C)cc5)c(-c5cnn(C)c5)[nH]c4ncc3n(C)c2=O)CC1` [Example 40, 4-(8-(4-((2-Methoxyethyl)sulfonyl)piperidin-1-yl)-6-methyl-2-(1-methyl-1H-pyrazol-4-yl)-7-oxo-6,7-dihydro-3H-pyrrolo[3,2-f][1,7]naphthyridin-1-yl)-N,N-dimethylbenzamide] yielded an IC50 [1] of 1000 to 10000 nM, an IC50 [2] of 100 to 500 nM and an IC50 [3] of 1000 to 10000 nM. It also gave an IC50 [4] of 100 to 500 nM.

`COC1CCC(c2cc(=O)n(C)c3cnc4[nH]c(-c5cnn(C)c5)cc4c23)CC1` (stereo not drawn) [Example 24, 9-(4-methoxycyclohexyl)-6-methyl-2-(1-methyl-1H-pyrazol-4-yl)-3,6-dihydro-7H-pyrrolo[3,2-f][1,7]naphthyridin-7-one] gave an IC50 [1] of no more than 100 nM, an IC50 [2] of no more than 100 nM and an IC50 [3] of no more than 100 nM. For the same compound, the IC50 [4] was no more than 100 nM.

In the case of `COc1ccc(-c2c(C)c3c4cc(-c5ccc(CN6CCC(S(C)(=O)=O)CC6)cc5)[nH]c4ncc3n(C)c2=O)cc1` [Example 12, 8-(4-Methoxyphenyl)-6,9-dimethyl-2-(4-((4-(methylsulfonyl)piperidin-1-yl)methyl)phenyl)-3,6-dihydro-7H-pyrrolo[3,2-f][1,7]naphthyridin-7-one], the IC50 [1] is reported as 100 to 500 nM, the IC50 [2] is reported as no more than 100 nM and the IC50 [3] is reported as no more than 100 nM. It also gave an IC50 [4] of no more than 100 nM.
